Test results as given in the NIST ThermoML archive (doi:10.1016/j.fluid.2004.11.019).
Numbers after ± are expanded uncertainties.

Test: xn = mol fraction of the nth substance listed
Settings: Liquid

CCO [ethanol] + O
mass density (323.15 K, 40000 kPa, x1 = 0.0801): 971.4 ± 0.3 kg/m3
mass density (323.15 K, 40000 kPa, x1 = 0.084): 970.9 ± 0.3 kg/m3
mass density (323.15 K, 40000 kPa, x1 = 0.0879): 969.2 ± 0.3 kg/m3
mass density (323.15 K, 40000 kPa, x1 = 0.0926): 967.6 ± 0.3 kg/m3
mass density (323.15 K, 40000 kPa, x1 = 0.0958): 966.5 ± 0.3 kg/m3
mass density (323.15 K, 40000 kPa, x1 = 0.1006): 964.9 ± 0.3 kg/m3
mass density (323.15 K, 40000 kPa, x1 = 0.1111): 961.3 ± 0.3 kg/m3
mass density (323.15 K, 40000 kPa, x1 = 0.1225): 957.4 ± 0.3 kg/m3
mass density (323.15 K, 40000 kPa, x1 = 0.1296): 955.2 ± 0.3 kg/m3
mass density (323.15 K, 40000 kPa, x1 = 0.1402): 951.7 ± 0.3 kg/m3
mass density (323.15 K, 40000 kPa, x1 = 0.151): 948.2 ± 0.4 kg/m3
mass density (323.15 K, 40000 kPa, x1 = 0.1601): 945.3 ± 0.4 kg/m3
mass density (323.15 K, 40000 kPa, x1 = 0.1703): 942 ± 0.4 kg/m3
mass density (323.15 K, 40000 kPa, x1 = 0.18): 938.9 ± 0.4 kg/m3
mass density (323.15 K, 40000 kPa, x1 = 0.1903): 935.8 ± 0.4 kg/m3
mass density (323.15 K, 40000 kPa, x1 = 0.1996): 932.9 ± 0.4 kg/m3
mass density (323.15 K, 40000 kPa, x1 = 0.2269): 924.7 ± 0.4 kg/m3
mass density (323.15 K, 40000 kPa, x1 = 0.2502): 918.2 ± 0.4 kg/m3
mass density (323.15 K, 40000 kPa, x1 = 0.2745): 911.5 ± 0.5 kg/m3
mass density (323.15 K, 40000 kPa, x1 = 0.3009): 904.8 ± 0.5 kg/m3
mass density (323.15 K, 40000 kPa, x1 = 0.35): 892.7 ± 0.5 kg/m3
mass density (323.15 K, 40000 kPa, x1 = 0.4034): 881 ± 0.6 kg/m3
mass density (323.15 K, 40000 kPa, x1 = 0.4501): 871.3 ± 0.6 kg/m3
mass density (323.15 K, 40000 kPa, x1 = 0.498): 862.6 ± 0.6 kg/m3
mass density (323.15 K, 40000 kPa, x1 = 0.5501): 853.6 ± 0.7 kg/m3
mass density (323.15 K, 40000 kPa, x1 = 0.5998): 845.8 ± 0.7 kg/m3
mass density (323.15 K, 40000 kPa, x1 = 0.6489): 838.5 ± 0.7 kg/m3
mass density (323.15 K, 40000 kPa, x1 = 0.6967): 831.9 ± 0.7 kg/m3
mass density (323.15 K, 40000 kPa, x1 = 0.7475): 825.5 ± 0.8 kg/m3
mass density (323.15 K, 40000 kPa, x1 = 0.7996): 819.1 ± 0.8 kg/m3
mass density (323.15 K, 40000 kPa, x1 = 0.8484): 813.6 ± 0.8 kg/m3
mass density (323.15 K, 40000 kPa, x1 = 0.8993): 808 ± 0.8 kg/m3
mass density (323.15 K, 40000 kPa, x1 = 0.9503): 802.8 ± 0.8 kg/m3
mass density (323.15 K, 40000 kPa, x1 = 1): 797.7 ± 0.9 kg/m3
mass density (348.15 K, 100 kPa, x1 = 0.003): 973.1 ± 0.3 kg/m3
mass density (348.15 K, 100 kPa, x1 = 0.0042): 971.9 ± 0.3 kg/m3
mass density (348.15 K, 100 kPa, x1 = 0.0082): 970.7 ± 0.3 kg/m3
mass density (348.15 K, 100 kPa, x1 = 0.0119): 969.1 ± 0.3 kg/m3
mass density (348.15 K, 100 kPa, x1 = 0.0158): 966.6 ± 0.3 kg/m3
mass density (348.15 K, 100 kPa, x1 = 0.0184): 965.4 ± 0.3 kg/m3
mass density (348.15 K, 100 kPa, x1 = 0.0219): 963.9 ± 0.3 kg/m3
mass density (348.15 K, 100 kPa, x1 = 0.0255): 962 ± 0.3 kg/m3
mass density (348.15 K, 100 kPa, x1 = 0.0279): 960.4 ± 0.3 kg/m3
mass density (348.15 K, 100 kPa, x1 = 0.0315): 959.4 ± 0.3 kg/m3
mass density (348.15 K, 100 kPa, x1 = 0.0366): 956.7 ± 0.3 kg/m3
mass density (348.15 K, 100 kPa, x1 = 0.0392): 955.3 ± 0.3 kg/m3
mass density (348.15 K, 100 kPa, x1 = 0.0439): 953.5 ± 0.3 kg/m3
mass density (348.15 K, 100 kPa, x1 = 0.0483): 951.2 ± 0.3 kg/m3
mass density (348.15 K, 100 kPa, x1 = 0.0516): 950.2 ± 0.3 kg/m3
mass density (348.15 K, 100 kPa, x1 = 0.0559): 948.8 ± 0.3 kg/m3
mass density (348.15 K, 100 kPa, x1 = 0.06): 946.9 ± 0.3 kg/m3
mass density (348.15 K, 100 kPa, x1 = 0.0652): 944.8 ± 0.3 kg/m3
mass density (348.15 K, 100 kPa, x1 = 0.0679): 943.7 ± 0.3 kg/m3
mass density (348.15 K, 100 kPa, x1 = 0.0722): 941.5 ± 0.3 kg/m3
mass density (348.15 K, 100 kPa, x1 = 0.0801): 938.1 ± 0.3 kg/m3
mass density (348.15 K, 100 kPa, x1 = 0.084): 937.5 ± 0.3 kg/m3
mass density (348.15 K, 100 kPa, x1 = 0.0879): 935.3 ± 0.3 kg/m3
mass density (348.15 K, 100 kPa, x1 = 0.0926): 933.6 ± 0.3 kg/m3
mass density (348.15 K, 100 kPa, x1 = 0.0958): 932.2 ± 0.3 kg/m3
mass density (348.15 K, 100 kPa, x1 = 0.1006): 930.2 ± 0.3 kg/m3
mass density (348.15 K, 100 kPa, x1 = 0.1111): 925.9 ± 0.3 kg/m3
mass density (348.15 K, 100 kPa, x1 = 0.1225): 921.5 ± 0.3 kg/m3
mass density (348.15 K, 100 kPa, x1 = 0.1296): 918.7 ± 0.3 kg/m3
mass density (348.15 K, 100 kPa, x1 = 0.1402): 914.6 ± 0.3 kg/m3
mass density (348.15 K, 100 kPa, x1 = 0.151): 910.4 ± 0.3 kg/m3
mass density (348.15 K, 100 kPa, x1 = 0.1601): 906.9 ± 0.3 kg/m3
mass density (348.15 K, 100 kPa, x1 = 0.1703): 903.1 ± 0.3 kg/m3
mass density (348.15 K, 100 kPa, x1 = 0.18): 899.5 ± 0.3 kg/m3
mass density (348.15 K, 100 kPa, x1 = 0.1903): 895.8 ± 0.3 kg/m3
mass density (348.15 K, 100 kPa, x1 = 0.1996): 892.6 ± 0.3 kg/m3
mass density (348.15 K, 100 kPa, x1 = 0.2269): 883.1 ± 0.3 kg/m3
mass density (348.15 K, 100 kPa, x1 = 0.2502): 875.6 ± 0.3 kg/m3
mass density (348.15 K, 100 kPa, x1 = 0.2745): 868 ± 0.3 kg/m3
mass density (348.15 K, 100 kPa, x1 = 0.3009): 860.4 ± 0.3 kg/m3
mass density (348.15 K, 100 kPa, x1 = 0.35): 846.7 ± 0.3 kg/m3
mass density (348.15 K, 100 kPa, x1 = 0.4034): 833.4 ± 0.3 kg/m3
mass density (348.15 K, 100 kPa, x1 = 0.4501): 822.7 ± 0.3 kg/m3
mass density (348.15 K, 100 kPa, x1 = 0.498): 812.7 ± 0.3 kg/m3
mass density (348.15 K, 100 kPa, x1 = 0.5501): 802.6 ± 0.4 kg/m3
mass density (348.15 K, 100 kPa, x1 = 0.5998): 793.8 ± 0.4 kg/m3
mass density (348.15 K, 100 kPa, x1 = 0.6489): 785.6 ± 0.4 kg/m3
mass density (348.15 K, 100 kPa, x1 = 0.6967): 778.2 ± 0.4 kg/m3
mass density (348.15 K, 100 kPa, x1 = 0.7475): 770.9 ± 0.4 kg/m3
mass density (348.15 K, 100 kPa, x1 = 0.7996): 763.9 ± 0.4 kg/m3
mass density (348.15 K, 100 kPa, x1 = 0.8484): 757.6 ± 0.4 kg/m3
mass density (348.15 K, 100 kPa, x1 = 0.8993): 751.5 ± 0.4 kg/m3
mass density (348.15 K, 100 kPa, x1 = 0.9503): 745.7 ± 0.4 kg/m3
mass density (348.15 K, 100 kPa, x1 = 1): 739.4 ± 0.4 kg/m3
mass density (348.15 K, 10000 kPa, x1 = 0.003): 977.5 ± 0.3 kg/m3
mass density (348.15 K, 10000 kPa, x1 = 0.0042): 976.3 ± 0.3 kg/m3
mass density (348.15 K, 10000 kPa, x1 = 0.0082): 975 ± 0.3 kg/m3
mass density (348.15 K, 10000 kPa, x1 = 0.0119): 973.4 ± 0.3 kg/m3
mass density (348.15 K, 10000 kPa, x1 = 0.0158): 971 ± 0.3 kg/m3
mass density (348.15 K, 10000 kPa, x1 = 0.0184): 969.6 ± 0.3 kg/m3
mass density (348.15 K, 10000 kPa, x1 = 0.0219): 968.2 ± 0.3 kg/m3
mass density (348.15 K, 10000 kPa, x1 = 0.0255): 966.4 ± 0.3 kg/m3
mass density (348.15 K, 10000 kPa, x1 = 0.0279): 964.8 ± 0.3 kg/m3
mass density (348.15 K, 10000 kPa, x1 = 0.0315): 963.8 ± 0.3 kg/m3
mass density (348.15 K, 10000 kPa, x1 = 0.0366): 961 ± 0.3 kg/m3
mass density (348.15 K, 10000 kPa, x1 = 0.0392): 959.6 ± 0.3 kg/m3
mass density (348.15 K, 10000 kPa, x1 = 0.0439): 957.8 ± 0.3 kg/m3
